Data reported in paper PMC4229968, “The Inhibition of the Components from Shengmai Injection towards UDP-Glucuronosyltransferase” (Evidence-based Complementary and Alternative Medicine : eCAM, 2014).

Experiments:
UGT1A4 = molecular target: T1, UGT1A4 (Homo sapiens, UniProt P22310); assay: Recombinant UGT1A4-catalyzed trifluoperazine (TFP) glucuronidation inhibition; assay type: in vitro ADME; conditions: for activity at 20 min, 100 μM: UGT1A4, 100 μM of compound, TFP substrate (40 μM), read-out: residual activity
T1 construct: purchased BD Gentest Corp. (Woburn, MA, USA); host or cells: baculovirus-infected insect cells
T1 sequence (P22310 29-534): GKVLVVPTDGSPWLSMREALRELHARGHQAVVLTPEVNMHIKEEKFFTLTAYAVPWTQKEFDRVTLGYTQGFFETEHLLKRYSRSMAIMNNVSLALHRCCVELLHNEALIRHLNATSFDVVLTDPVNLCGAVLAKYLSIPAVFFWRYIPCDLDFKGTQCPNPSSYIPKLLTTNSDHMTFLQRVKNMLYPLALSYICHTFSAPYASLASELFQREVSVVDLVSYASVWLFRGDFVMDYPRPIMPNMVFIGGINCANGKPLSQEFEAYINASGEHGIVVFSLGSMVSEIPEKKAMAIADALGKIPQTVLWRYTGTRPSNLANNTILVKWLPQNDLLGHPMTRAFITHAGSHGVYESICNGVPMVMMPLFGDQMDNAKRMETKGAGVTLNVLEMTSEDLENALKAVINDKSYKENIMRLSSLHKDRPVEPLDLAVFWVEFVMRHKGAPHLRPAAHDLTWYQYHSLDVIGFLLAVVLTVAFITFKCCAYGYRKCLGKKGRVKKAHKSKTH
Description: (§1) 4-Methylumbelliferone (4-MU), 4-methylumbelliferone-β-D-glucuronide (4-MUG), Tris-HCl, 7-hydroxycoumarin, and uridine-5′-diphosphoglucuronic acid (UDPGA) (trisodium salt) were purchased from Sigma-Aldrich (St. Louis, MO). Recombinant human UGT isoforms (UGT1A1, UGT1A3, UGT1A4, UGT1A6, UGT1A7, UGT1A8, UGT1A9, UGT1A10, UGT2B4, UGT2B7, and UGT2B15) expressed in baculovirus-infected insect cells were obtained from BD Gentest Corp. (Woburn, MA, USA). Ophiopogonin D (OD), ophiopogonin D′ (OD′), methylophiopogonanone A (MA), methylophiopogonanone B (MB), and ruscorectal (RU) were purchased from Sichuan Weikeqi Biotechnology Company (Chengdu, Sichuan, China). The purity of these compounds was above 95%. All other reagents were of HPLC grade or of the highest grade commercially available.
Therefore, UGT1A4-catalyzed trifluoperazine (TFP) glucuronidation was carried out to evaluate inhibition of maidong's components towards UGT1A4 activity. As previously reported, TFP (40 μM, near its K m value) was incubated with 0.1 mg/mL recombinant UGT1A4 for 20 min in the presence or absence of maidong's ingredients.
To determine the inhibition kinetic type and parameters (K i), the reaction velocity (V) was determined at multiple concentrations of maidong's components and 4-MU (or TFP). Dixon plot and Lineweaver-Burk plot were used to fit the data. The inhibition kinetic type was evaluated through determining the intersection point in the Dixon and Lineweaver-Burk plots.
K m value is the substrate concentration in which the velocity reached half of the maximum velocity (V max) of the reaction. K i value is the inhibition constant.

UGT2B7 = molecular target: T2, UGT2B7 (Homo sapiens, UniProt P16662); assay: Recombinant UGT2B7-catalyzed 4-MU glucuronidation inhibition; assay type: in vitro ADME; conditions: pH 7.4, probe 4-methylumbelliferone (4-MU), UGT2B7, 100 μM of compound, 4-MU substrate, read-out: residual activity
T2 construct: purchased BD Gentest Corp. (Woburn, MA, USA); host or cells: baculovirus-infected insect cells
T2 sequence (P16662 24-529): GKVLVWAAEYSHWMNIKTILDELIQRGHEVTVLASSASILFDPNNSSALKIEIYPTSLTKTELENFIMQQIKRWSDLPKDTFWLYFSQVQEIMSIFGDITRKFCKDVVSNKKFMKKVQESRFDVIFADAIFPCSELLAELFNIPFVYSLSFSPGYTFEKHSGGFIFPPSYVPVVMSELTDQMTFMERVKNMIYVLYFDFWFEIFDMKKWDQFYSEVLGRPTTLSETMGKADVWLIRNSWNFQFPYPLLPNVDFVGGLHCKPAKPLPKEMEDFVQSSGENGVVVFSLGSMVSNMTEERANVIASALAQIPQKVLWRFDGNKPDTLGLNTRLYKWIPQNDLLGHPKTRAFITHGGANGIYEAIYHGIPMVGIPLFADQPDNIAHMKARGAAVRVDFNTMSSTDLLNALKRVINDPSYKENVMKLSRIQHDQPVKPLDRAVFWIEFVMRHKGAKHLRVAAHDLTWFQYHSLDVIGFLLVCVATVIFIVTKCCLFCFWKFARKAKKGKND
Description: as §1
4-MU, the nonspecific probe substrate for all the UGT isoforms except UGT1A4, was used in the present study to initially screen the inhibition potential of maidong's components towards UGT isoforms as previously reported. In brief, the incubation system (total volume = 200 μL) consisted of recombinant UGTs, 5 mM UDPGA, 5 mM MgCl2, 50 mM Tris-HCl (pH = 7.4), and 4-MU in the absence or presence of different concentrations of maidong's components. The compounds were dissolved in DMSO, and the final concentration of DMSO was below 0.5% (v/v). The used incubation time and protein concentration were previously determined to ensure the reaction rate within the linear range. The 4-MU concentration was equal to known K m or S 50 values for each UGT isoform. After 5 min preincubation at 37°C, the incubation reaction was initiated via adding UDPGA to the mixture system. The reactions were quenched by adding 100 μL acetonitrile with 7-hydroxycoumarin (100 μM) as internal standard. Centrifuged at 20000 ×g for 10 min, an aliquot of supernatant was transferred to an autoinjector vial for HPLC analysis. The HPLC system (Shimadzu, Kyoto, Japan) contained a SCL-10A system controller, two LC-10AT pumps, a SIL-10A autoinjector, and a SPD-10AVP UV detector. Chromatographic separation was carried out using a C18 column (4.6 × 200 mm, 5 μm, Kromasil) at a flow rate of 1 mL/min and UV detector at 316 nm. The mobile phase consisted of acetonitrile (A) and H2O containing 0.5% (v/v) formic acid (B). The following gradient condition was used: 0–15 min, 95–40% B; 15–20 min, 10% B; 20–30 min, 95% B.

[1] = human, probe trifluoperazine (TFP)

Row | Compound | activity at 20 min, 100 μM (UGT1A4; [1]) | activity at 100 µM (UGT2B7) | inhibition type (UGT1A4; UGT1A4, TFP glucuronidation, Dixon and Lineweaver-Burk plots) | Ki (UGT1A4; UGT1A4-catalyzed TFP glucuronidation, read-out: inhibition kinetic parameter (Ki)) | inhibition at 20 min, 100 µM (UGT1A4; human, probe trifluoperazine (TFP), 40 μM, UGT1A4, at 100 μM, read-out: inhibition percent)
1 | COc1ccc(C[C@@H]2COc3c(C)c(O)c(C)c(O)c3C2=O)cc1 [MB, methylophiopogonanone B] | 81.1 ± 8% | 82.8 ± 14.5% |  |  | 
2 | CC1CCC2(OC1)OC1CC3C4CC=C5CC(O)CC(O)C5(C)C4CCC3(C)C1C2C (stereo not shown) [RU, ruscorectal] | 0% | 125 ± 59% | competitive inhibition | 20 nM | ~100%
3 | C[C@@H]1CC[C@@]2(OC1)O[C@H]1C[C@H]3[C@@H]4CC=C5C[C@@H](O[C@@H]6O[C@H](CO)[C@@H](O)[C@H](O[C@@H]7OC[C@@H](O)[C@H](O)[C@H]7O)[C@H]6O[C@@H]6O[C@@H](C)[C@H](O)[C@@H](O)[C@H]6O)CC[C@]5(C)[C@H]4CC[C@]3(C)[C@H]1[C@@H]2C [OD′, ophiopogonin D′] | 21 ± 1.6% | 77.4 ± 7.1% |  |  | 
4 | C[C@@H]1CC[C@@]2(OC1)O[C@H]1C[C@H]3[C@@H]4CC=C5C[C@@H](O)C[C@@H](O[C@@H]6O[C@H](C)[C@H](O)[C@H](O[C@@H]7OC[C@@H](O)[C@H](O)[C@H]7O)[C@H]6O[C@@H]6O[C@@H](C)[C@H](O)[C@@H](O)[C@H]6O)[C@]5(C)[C@H]4CC[C@]3(C)[C@H]1[C@@H]2C [OD, ophiopogonin D] | 24.6 ± 1.6% | 85.4 ± 7.3% |  |  | 
5 | Cc1c(O)c(C)c2c(c1O)C(=O)[C@H](Cc1ccc3c(c1)OCO3)CO2 [MA, methylophiopogonanone A] | 70.4 ± 3.8% | 23.3 ± 16.7% |  |  | 
